Key:
[1] = system: MCF-7 cells expressing LC3-GFP; assay: Number of GFP-LC3 puncta (autophagy induction); type: cell-based; conditions: MCF-7 expressing LC3-GFP, treated 6 hours in serum-free medium
Protocol: Using lipofectamine 2000, LC3-GFP plasmid was transfected into MCF-7 cells. Transfected MCF-7 was selected with 800 µg/mL of G418 for 3 months. […] 100,000 MCF-7 cells expressing LC3-GFP were seeded.
40 µg of dye-labeled particles and 4 µg of bec1 peptide were mixed, and the cells were treated for 6 hours in a serum-free medium. Cells were fixed with 4% PFA, and nuclei were stained with DAPI. Images were obtained with a Delta-vision microscope, and the number of GFP-LC3 puncta was measured in 100 cells for each group.
LC3 protein is a biomarker involved in the elongation process of autophagosome, and its expression level is known to increase with the progress of autophagosome.

MCF-7 cells = assay: Cytotoxicity, MTT assay; type: cell-based; conditions: treatment for 1 day, compared to the non-treated group
Protocol: MCF-7 cells were seeded at 10,000 cells/well in 96-well cell culture plates. After 1 day, different concentrations of each particle (4 to 500 µg/mL) were treated with a serum-containing medium in each well for 1 day. Thereafter, the culture was performed for 4 hours while replacing the above medium with a serum-free medium containing 10 µl of MTT assay kit, and the supernatant was aspirated. DMSO was added to each well to dissolve formazan, and reacted for 1 hour. The absorbance was measured at a wavelength of 570 nm, and the cell viability was calculated as a relative value to that of the untreated group.
Cell viability was compared by MTT assay after treatment with FabBALL and Becl peptide carrying Becl peptide on MCF-7 cells.

## CGGTNVFNATFHIWHSGQFGT [Becl peptide]
[1]
  GFP puncta: very little amount
MCF-7 cells
  cell viability: not significantly varied
